Experimental data: article doi:10.64898/2025.12.13.694138, “Structural insights into xyloglucan recognition by an ABC transporter from a Gram-positive, thermophilic bacterium” (bioRxiv, 2025)
Where two headings read alike, the source gives them in different places. Values belong to the compound of their own block, whether it stands above or below them.

Key:
Assay in all cases: ITC ([…] °C); DSC ΔTm […] °C
Assay type in all cases: binding
Athe_2052 [1] = target: T1, Athe_2052 (Caldicellulosiruptor bescii, UniProt B9MLD9)
T1 construct: Athe_2052 without its signal peptide, N-terminal hexa-histidine tag

Athe_2052 [2] = target: T1, Athe_2052; remark: listed apart in the source
Athe_2052 [3] = target: T1, Athe_2052; remark: listed apart in the source

T1 sequence (B9MLD9 entry or part of it): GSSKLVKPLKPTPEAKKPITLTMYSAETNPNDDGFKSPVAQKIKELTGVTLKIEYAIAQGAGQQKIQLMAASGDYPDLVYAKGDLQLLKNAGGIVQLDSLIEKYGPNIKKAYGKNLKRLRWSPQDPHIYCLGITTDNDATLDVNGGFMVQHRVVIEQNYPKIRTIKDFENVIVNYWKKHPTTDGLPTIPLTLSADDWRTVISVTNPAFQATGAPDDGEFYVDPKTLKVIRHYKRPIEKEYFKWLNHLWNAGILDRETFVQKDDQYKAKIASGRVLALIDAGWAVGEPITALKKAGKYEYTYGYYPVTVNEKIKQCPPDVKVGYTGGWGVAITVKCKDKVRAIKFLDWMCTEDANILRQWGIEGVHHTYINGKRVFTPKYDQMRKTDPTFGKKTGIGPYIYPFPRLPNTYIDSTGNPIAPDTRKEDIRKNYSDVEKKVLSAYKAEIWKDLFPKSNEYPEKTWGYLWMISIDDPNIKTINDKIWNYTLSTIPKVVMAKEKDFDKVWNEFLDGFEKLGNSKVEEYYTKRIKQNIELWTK

- Kd (Athe_2052 [1]): 247 nM
SMILES: OC[C@H]1O[C@@H](O[C@H]2[C@H](O)[C@@H](O)[C@H](O[C@H]3[C@H](O)[C@@H](O)C(O)O[C@@H]3CO)O[C@@H]2CO)[C@H](O)[C@@H](O)[C@@H]1O (stereo partly drawn) [Cellotriose]

- Kd (Athe_2052 [2]): 14 nM
SMILES: OC[C@H]1OC(O)[C@H](O)[C@@H](O)[C@@H]1O[C@@H]1O[C@H](CO[C@H]2OC[C@@H](O)[C@H](O)[C@H]2O)[C@@H](O[C@@H]2O[C@H](CO[C@H]3OC[C@@H](O)[C@H](O)[C@H]3O)[C@@H](O[C@@H]3O[C@H](CO[C@H]4OC[C@@H](O)[C@H](O)[C@H]4O)[C@@H](O)[C@H](O)[C@H]3O)[C@H](O)[C@H]2O)[C@H](O)[C@H]1O (stereo partly drawn) [XXXG, xyloglucan heptasaccharide]

- Kd (Athe_2052 [3]): 214 nM
SMILES: OC[C@H]1O[C@@H](O[C@H]2[C@H](O)[C@@H](O)[C@H](O[C@H]3[C@H](O)[C@@H](O)[C@H](O[C@H]4[C@H](O)[C@@H](O)C(O)O[C@@H]4CO)O[C@@H]3CO)O[C@@H]2CO)[C@H](O)[C@@H](O)[C@@H]1O (stereo partly drawn) [Cellotetraose]
